One molecule from US10973912B2, “Treatment for myopathy” (Children's Medical Center Corporation, priority 2015, dated 2021) can be followed below.

One test has as its system ryr1b zebrafish. Put plainly: Activity monitoring (Noldus Daniovision), spontaneous swimming at 20 dpf. The class given is in vivo, zebrafish (Danio rerio). To be noted: long-term treatment. On the procedure: In FIG. 10A, body angles of ryr1b mutants after 20 days of NIF treatment (10.0 μg/mL) are corrected and statistically indistinguishable from wild-type controls. […] Angles were measured by first drawing/extending straight lines between the eyes of the larva as well as along the midline of the trunk (shown by dotted red lines). The angle of intersection was determined using Adobe Photoshop CS3 software (WT-DMSO: 179.1±0.9°, n=6; WT-NIF: 176.8±1.1°, n=6; ryr1b-DMSO: 142.6±6.2°, n=11; ryr1b-NIF: 174.4±2.0°, n=4). Significance was determined by a one-way ANOVA (F=13.60, P<0.0001), followed by pairwise Tukey's HSD post hoc tests. […] Significance was determined by a one-way ANOVA (F=10.03, P=0.0009), followed by pairwise Tukey's HSD post hoc tests. […]
Zebrafish behavioral parameters were defined using the Noldus Daniovision activity monitoring system. […] Swimming behaviors were recorded over the entire 2.0-hour period with an infrared light source. […] Behavioral parameters recorded include frequency, mean velocity, total distance, and cumulative duration of movement, and reflect the average of all larvae in an experimental group.
Next, to determine if long-term NIF treatment affects ryr1b motor functions, spontaneous swimming behaviors of 20 dpf larvae were quantified using the Noldus Daniovision. […]

For a further test, the system named is wild-type mouse myotubes. The test is described as follows: Calcium imaging, caffeine dose response of depolarization-induced calcium release. The format is cell-based, mouse (C57BL/6N). To be noted: wild-type background, cultured 5 days with compound. The protocol: (§1) Tetanic forces were measured following stimulation with 9 biphasic, 200 μs square-wave pulses at 300 Hz (WT-DMSO: 45.6±4.2 kPa, n=5; WT-NIF: 52.8±4.1 kPa, n=5; ryr1b-DMSO: 11.4±1.3 kPa, n=7; ryr1b-NIF: 25.4±4.0 kPa, n=7). Significance was determined by a one-way ANOVA (F=29.61, P<0.0001), followed by pairwise Tukey's HSD post hoc tests. […] Non-linear regression data of curves were not statistically different, as determined by an extra sum-of-squares F test (P=1.0).
Primary myoblasts from C57BL/6N mice were isolated and differentiated as described previously^39. Calcium imaging was performed 5 days after differentiation in myotubes loaded with 3 μM Fluo-4-AM (Life Technologies). Myotubes were imaged in imaging buffer (125 mM NaCl, 5 mM KCl, 2 mM CaCl2, 1.2 mM MgSO4, 6 mM glucose, 2 mM Ca^2+, 25 mM Hepes/Tris, pH 7.4) at 490-500 nm with a Stanford Photonics 10 bit digital intensified CCD using a DG4 multi-wavelength light source. Fluorescent emission at 510 was acquired and analyzed using QED Imaging software (QED Software, Pittsburgh, Pa., USA) from regions of interest within each myotube at 30 frames per second. Sensitivity to K^+-depolarization and caffeine-activation were determined by a 5 second perfusion with 5-6 volumes of KCl (10 mM to 60 mM) or caffeine (3 mM to 40 mM). […]

The next test relates to phosphorylated Stat3. Put plainly: Western blot of phosphorylated Stat3 at 5 dpf. The class given is in vivo, zebrafish (Danio rerio). To be noted: 10 μg/mL, normalized to β-Actin. The protocol:
In two independent experiments, two pools of 20 larvae from heterozygous ryr1b matings were treated with DMSO or with one of three different concentrations of NIF (1.0-100.0 μg/mL) at 1 dpf and evaluated in terms of touch-evoked escape behaviors at 5 dpf (n=40). Following phenotypic scoring, all living embryos were genotyped using three-primer genomic PCR. Swimming scores for larvae genotype-confirmed as ryr1b homozygous mutants are shown as a percentage of the total number of living larvae in each dose category: 1=poor swimming; 2 or 3=moderate or wild-type swimming. NIF improved mobility of ryr1b mutants at a dose of 10 μg/mL. […] Phospho-Stat3 band intensities were normalized to β-Actin control bands and quantified in Image J (NIH).
Western blotting was performed on groups of 50-100 wild-type or mutant zebrafish larvae at 5 dpf. […] Phospho-Stat3 band intensities were normalized to control bands and quantified in Image J (NIH).
To determine whether zebrafish stat3 is differentially expressed in the wild-type and Ryr1-deficient background, quantitative real-time RT-PCR was performed using fluorescently tagged Taqman probes.

In the next test the test system is ryr1b skeletal muscles. The test is described as follows: Tetanic force per cross-sectional area in larvae at 5 dpf. The format is in vivo, zebrafish (Danio rerio). To be noted: WT, n=5, 9 biphasic 200 μs pulses at 300 Hz. On the procedure:
as §1
Ryr1b mutants display weaker muscle contractions than wild-type clutchmates as early as 2 dpf^30. To investigate whether […] affects contractile strength in zebrafish, ryr1b mutants and unaffected controls were treated with the compound for several days. At 5 dpf, electrophysiological studies were performed with the help of Dr. Jeffrey Widrick.

With `O=C(N/N=C/c1ccc([N+](=O)[O-])o1)c1ccc(O)cc1` [Nifuroxazide], the “distance travelled during 2.0-hour period” value in the test on ryr1b zebrafish was “large and robust increase on the distance travelled by ryr1b zebrafish”. The “calcium release in response to caffeine” value in the test on wild-type mouse myotubes is “only very modest increases in calcium release”. Moreover, the “levels of phosphorylated Stat3 protein” value in the test on phosphorylated Stat3 was “larger decrease in ryr1b mutants than in unaffected controls”. For the same molecule, the “tetanic force per cross-sectional area, wild-type larvae” value with ryr1b skeletal muscles was determined as 52.8±4.1 kPa.
